The source of these data is ChEMBL document CHEMBL5257093, “3-Arylidene-2-oxindoles as GSK3β inhibitors and anti-thrombotic agents” (Bioorg Med Chem Lett, 2023).

Data set [1] deals with Glycogen synthase kinase-3 beta (Homo sapiens, UniProt P49841). Kind of data set: Inhibition of recombinant human GSK3beta […] assessed as reduction in human muscle glycogen synthase type 1 fragment phosphorylation using YRRAAVPPSPSLSRHSSPHQ(pS)EDE as substrate in presence of ATP incubated for 60 mins by ADP-Glo kinase assay.
Glycogen synthase kinase-3 beta, sequence (P49841 whole entry, the tested form may be a part): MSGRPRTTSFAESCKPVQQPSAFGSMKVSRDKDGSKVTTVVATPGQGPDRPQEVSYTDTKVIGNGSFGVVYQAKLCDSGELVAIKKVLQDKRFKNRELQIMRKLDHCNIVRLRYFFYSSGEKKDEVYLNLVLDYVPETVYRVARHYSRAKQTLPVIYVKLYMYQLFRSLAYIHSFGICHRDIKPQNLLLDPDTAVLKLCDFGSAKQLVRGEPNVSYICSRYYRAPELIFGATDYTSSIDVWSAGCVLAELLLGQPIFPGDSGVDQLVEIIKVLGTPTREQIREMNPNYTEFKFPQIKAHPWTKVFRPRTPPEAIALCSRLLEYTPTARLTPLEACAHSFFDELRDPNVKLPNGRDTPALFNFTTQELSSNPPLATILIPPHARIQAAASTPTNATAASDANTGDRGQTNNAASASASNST
Data set [2] is filed under the species Homo sapiens. The data set can be described thus: Antiplatelet activity in platelet rich plasma (unknown origin) assessed as inhibition of ADP-induced platelet aggregation incubated for 5 mins by aggregometer analysis. The data set is classed as functional.
The species named for data set [3] is Homo sapiens. The data set can be described thus: Antiplatelet activity in platelet rich plasma (unknown origin) assessed as inhibition of collagen-induced platelet aggregation incubated for 5 mins by aggregometer analysis. The data set is classed as functional.
Data set [4] deals with Peritoneal macrophage. The data set can be described thus: (§1) Cytotoxicity against mouse Peritoneal macrophages assessed as LDH release by LDH assay. Format: toxicity, cell-based. The conditions noted are these: peritoneal macrophage.
For data set [5], the species on record is Homo sapiens. The data set can be described thus: cells. The conditions noted are these: Platelet, Plasma, 5 min, read-out: INH.
Description: Antiplatelet activity in platelet rich plasma (unknown origin) assessed as inhibition of ADP-induced platelet aggregation at 100 uM incubated for 5 mins by aggregometer analysis
Data set [6] is filed under the species Homo sapiens. Kind of data set: cells. The conditions noted are these: Platelet, Plasma, 5 min, read-out: INH. The source holds these as a separate data set.
Description: Antiplatelet activity in platelet rich plasma (unknown origin) assessed as inhibition of ADP-induced platelet aggregation at 10 uM incubated for 5 mins by aggregometer analysis
The species named for data set [7] is Homo sapiens. Kind of data set: cells. The conditions noted are these: Platelet, Plasma, 5 min, read-out: INH. This is another data set of the same source.
Description: Antiplatelet activity in platelet rich plasma (unknown origin) assessed as inhibition of ADP-induced platelet aggregation at 1 uM incubated for 5 mins by aggregometer analysis
Data set [8] concerns Rattus norvegicus. Kind of data set: Antithrombotic activity FeCl3-induced carotid artery thrombosis rat model assessed as prolongation of artery occlusion time pretreated dosed IG for 2 hrs followed by 50% FeCl3 application. Conditions: po. Format: functional.
Data set [9] can be described thus: as §1. The data set is classed as toxicity, cell-based, Peritoneal macrophage. Conditions: peritoneal macrophages.

A value given as a limit tells only on which side of the number the result lay.

The term IC50 denotes the concentration needed to halve the response being measured. Take `COC(=O)Nc1ccc2c(c1)/C(=C\c1ccc([N+](=O)[O-])cc1)C(=O)N2`: the IC50 in [1] was found to be 0.348 µM. On the same count and under the same terms, to `Nc1ccc2c(c1)C(Cc1ccccn1)C(=O)N2` (stereo not given) belongs > 50 µM.

As a reminder, the CC50 is the concentration at which the toxic effect on the cells reaches its halfway point. Consider `O=C1Nc2ccc(NC(=O)c3ccccc3)cc2/C1=C\c1ccc(O)cc1`, for which the IC50 in [2] (read-out: IC50) is 18.5 µM; in data set [3] (read-out: IC50), 46.7 µM. In addition, in data set [4], the CC50 is > 100 µM. In addition, in [5], the inhibition at 100 µM came out at 72.3%. The inhibition at 10 µM in data set [6] is 37.2%. Besides, in [7], the inhibition at 1 µM is 19.3%. For the molecule `Cc1ccc(C(=O)CC2(O)C(=O)Nc3ccc(NC(=O)c4ccccc4)cc32)cc1` (stereo not given), in data set [1], the IC50 was 1.72 µM. On to `CCOC(=O)c1[nH]ncc1/C=C1\C(=O)Nc2ccc([N+](=O)[O-])cc21`, for which, in data set [1], the concentration for half-maximal inhibition (IC50) is 1.77 µM. Same read-out and setting: as for `CN1C(=O)/C(=C/c2ccccn2)c2ccccc21`, the figure is > 50 µM; as for `Cc1n[nH]cc1/C=C1/C(=O)Nc2ccccc21`, 5.68 µM; as for `CC(=O)Nc1ccc2c(c1)/C(=C\c1cccnc1)C(=O)N2`, > 50 µM. One may read the ED50 as the dose at which the effect has come halfway, by size or by number of responders. As for `CC(=O)Oc1ccccc1C(=O)O` [ASPIRIN], the values for the IC50 in data set [2] and in data set [3] were 81 µM and 4.5 µM, respectively. Moreover, the ED50 in data set [8] worked out at 137 mg/kg. Consider `O=C1Nc2ccccc2C12CC2c1ccccn1` (stereo not given), for which the IC50 in data set [2] (read-out: IC50) stood at 8.9 µM; in data set [3] (read-out: IC50) it was 37 µM. Besides, the CC50 in data set [4] is > 100 µM. As to `O=C1Nc2ccccc2C1Cc1cccnc1` (stereo not given), the IC50 in data set [1] amounted to 0.0042 µM; in [3] (read-out: IC50), 3 µM. Besides, the CC50 in data set [9] is > 100 µM. Further, the median effective dose (ED50) in [8] was 7.3 mg/kg. Also, in data set [5], the inhibition at 100 µM is 75.6%. In addition, in data set [6], the inhibition at 10 µM was 55.6%. The inhibition at 1 µM in data set [7] amounted to 26.5%. On to `COCC(=O)c1[nH]ncc1/C=C1\C(=O)Nc2ccccc21`, for which, in data set [1], the 50% inhibitory concentration (IC50) came out at 6.72 µM. For `CC(=O)Nc1ccc2c(c1)/C(=C\c1ccc(O)cc1)C(=O)N2`, the concentration for half-maximal inhibition (IC50) in data set [1] was found to be 34.4 µM. On the same count and under the same terms, to `Cn1cc(/C=C2/C(=O)Nc3ccccc32)cn1` belongs 13.5 µM. As to `COC(=O)Nc1ccc2c(c1)/C(=C\c1ccc(O)cc1)C(=O)N2`, the IC50 is 13.5 µM in [2] (read-out: IC50) and > 100 µM in data set [3] (read-out: IC50). Besides, the CC50 in [4] was > 100 µM. Consider `O=C1Nc2ccc([N+](=O)[O-])cc2/C1=C\c1cccnc1`, for which the IC50 in [1] amounted to 20 µM. As to `O=C1Nc2ccccc2/C1=C\c1ccc(O)cc1`, the IC50 in [1] was > 50 µM.

Turning to `Nc1ccc(CC2C(=O)Nc3ccccc32)cc1` (stereo not given), the IC50 in data set [1] came out at 50 µM.
